Source: BindingDB's records for patent US20250059194 (Michigan State University, 2025)

Biological target: T1, Serine/threonine-protein kinase ULK2 (Homo sapiens, UniProt Q8IYT8)
T1 sequence (Q8IYT8 whole entry): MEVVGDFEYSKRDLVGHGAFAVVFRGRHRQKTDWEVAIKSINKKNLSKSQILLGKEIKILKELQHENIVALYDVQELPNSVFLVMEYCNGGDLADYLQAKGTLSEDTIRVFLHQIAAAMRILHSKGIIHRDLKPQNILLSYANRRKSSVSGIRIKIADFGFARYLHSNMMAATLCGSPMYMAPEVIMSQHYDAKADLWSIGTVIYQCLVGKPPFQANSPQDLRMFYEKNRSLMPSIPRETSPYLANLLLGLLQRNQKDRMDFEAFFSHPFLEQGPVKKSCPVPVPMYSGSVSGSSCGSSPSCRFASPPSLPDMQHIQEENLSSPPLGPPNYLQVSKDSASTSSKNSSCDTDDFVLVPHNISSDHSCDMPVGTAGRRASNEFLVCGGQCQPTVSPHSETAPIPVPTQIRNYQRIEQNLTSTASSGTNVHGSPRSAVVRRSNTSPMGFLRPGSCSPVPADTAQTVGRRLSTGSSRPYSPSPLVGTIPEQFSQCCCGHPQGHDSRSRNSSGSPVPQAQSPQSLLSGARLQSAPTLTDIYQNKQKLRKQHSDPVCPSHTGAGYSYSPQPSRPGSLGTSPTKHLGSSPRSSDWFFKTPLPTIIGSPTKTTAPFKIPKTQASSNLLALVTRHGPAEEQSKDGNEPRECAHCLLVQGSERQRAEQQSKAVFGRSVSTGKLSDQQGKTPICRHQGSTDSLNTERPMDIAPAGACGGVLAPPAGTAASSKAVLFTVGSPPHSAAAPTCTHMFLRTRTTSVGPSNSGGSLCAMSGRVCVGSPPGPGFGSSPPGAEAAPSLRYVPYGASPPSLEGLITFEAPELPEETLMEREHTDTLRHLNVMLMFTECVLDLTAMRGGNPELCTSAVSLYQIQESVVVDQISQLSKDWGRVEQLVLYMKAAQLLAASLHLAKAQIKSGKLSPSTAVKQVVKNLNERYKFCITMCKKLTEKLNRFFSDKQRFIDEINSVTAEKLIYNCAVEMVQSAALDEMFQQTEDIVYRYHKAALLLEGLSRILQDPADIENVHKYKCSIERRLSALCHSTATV
Test: Not found
Excerpt: Not found

IC50: 325 nM
SMILES: CCC(CC)NC(=O)c1cc(-c2cnn3cc(N4CCNCC4)cnc23)cs1 [US20250059194, Example Table 1.9]
